From ChEMBL document CHEMBL1138859, “Synthesis and Src kinase inhibitory activity of a series of 4-[(2,4-dichloro-5-methoxyphenyl)amino]-7-furyl-3-quinolinecarbonitriles” (J Med Chem, 2006)
Converted amounts (≈) assume the structure as drawn.

What was measured:
[1] = Solubility at pH 4.5; type: physicochemical; details: buffer
[2] = target: Proto-oncogene tyrosine-protein kinase Src (Homo sapiens, UniProt P12931); test: Inhibition of Src
[3] = Stability in nude mouse liver microsomes; type: ADME, Microsome
[4] = Stability in rat liver microsomes after 30 min; type: ADME, Microsome; details: read-out: Stability
HT-29 = test: Antitumor activity against HT29 cells xenografted in nude mouse after 21 days at 150 mg/kg, po; type: functional, Homo sapiens
[5] = Plasma concentration in nude mouse after 8 hrs at 50 mg/kg, po; type: ADME, organism-based; set-up: dose 50 mg/kg, route oral
[6] = target: Cyclin-dependent kinase 4 (Homo sapiens, UniProt P11802); test: Inhibition of CDK4
Cyclin-dependent kinase 4, sequence (P11802 whole entry): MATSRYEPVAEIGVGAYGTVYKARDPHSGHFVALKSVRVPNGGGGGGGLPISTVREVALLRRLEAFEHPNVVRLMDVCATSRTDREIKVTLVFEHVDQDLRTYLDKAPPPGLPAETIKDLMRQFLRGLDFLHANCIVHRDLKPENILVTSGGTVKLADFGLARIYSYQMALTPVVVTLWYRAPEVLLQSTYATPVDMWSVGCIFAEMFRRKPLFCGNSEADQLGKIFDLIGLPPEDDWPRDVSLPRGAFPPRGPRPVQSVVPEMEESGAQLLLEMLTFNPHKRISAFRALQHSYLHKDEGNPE

[7] = Permeability by PAMPA assay; type: ADME; details: read-out: permeability
[8] = Plasma concentration in nude mouse after 24 hrs at 50 mg/kg, po; type: ADME, organism-based; set-up: dose 50 mg/kg, route oral
[9] = Plasma concentration in nude mouse after 4 hrs at 50 mg/kg, po; type: ADME, organism-based; set-up: dose 50 mg/kg, route oral
[10] = target: Epidermal growth factor receptor (Homo sapiens, UniProt P00533); test: Inhibitory activity against EGFR
Epidermal growth factor receptor, sequence (P00533 whole entry): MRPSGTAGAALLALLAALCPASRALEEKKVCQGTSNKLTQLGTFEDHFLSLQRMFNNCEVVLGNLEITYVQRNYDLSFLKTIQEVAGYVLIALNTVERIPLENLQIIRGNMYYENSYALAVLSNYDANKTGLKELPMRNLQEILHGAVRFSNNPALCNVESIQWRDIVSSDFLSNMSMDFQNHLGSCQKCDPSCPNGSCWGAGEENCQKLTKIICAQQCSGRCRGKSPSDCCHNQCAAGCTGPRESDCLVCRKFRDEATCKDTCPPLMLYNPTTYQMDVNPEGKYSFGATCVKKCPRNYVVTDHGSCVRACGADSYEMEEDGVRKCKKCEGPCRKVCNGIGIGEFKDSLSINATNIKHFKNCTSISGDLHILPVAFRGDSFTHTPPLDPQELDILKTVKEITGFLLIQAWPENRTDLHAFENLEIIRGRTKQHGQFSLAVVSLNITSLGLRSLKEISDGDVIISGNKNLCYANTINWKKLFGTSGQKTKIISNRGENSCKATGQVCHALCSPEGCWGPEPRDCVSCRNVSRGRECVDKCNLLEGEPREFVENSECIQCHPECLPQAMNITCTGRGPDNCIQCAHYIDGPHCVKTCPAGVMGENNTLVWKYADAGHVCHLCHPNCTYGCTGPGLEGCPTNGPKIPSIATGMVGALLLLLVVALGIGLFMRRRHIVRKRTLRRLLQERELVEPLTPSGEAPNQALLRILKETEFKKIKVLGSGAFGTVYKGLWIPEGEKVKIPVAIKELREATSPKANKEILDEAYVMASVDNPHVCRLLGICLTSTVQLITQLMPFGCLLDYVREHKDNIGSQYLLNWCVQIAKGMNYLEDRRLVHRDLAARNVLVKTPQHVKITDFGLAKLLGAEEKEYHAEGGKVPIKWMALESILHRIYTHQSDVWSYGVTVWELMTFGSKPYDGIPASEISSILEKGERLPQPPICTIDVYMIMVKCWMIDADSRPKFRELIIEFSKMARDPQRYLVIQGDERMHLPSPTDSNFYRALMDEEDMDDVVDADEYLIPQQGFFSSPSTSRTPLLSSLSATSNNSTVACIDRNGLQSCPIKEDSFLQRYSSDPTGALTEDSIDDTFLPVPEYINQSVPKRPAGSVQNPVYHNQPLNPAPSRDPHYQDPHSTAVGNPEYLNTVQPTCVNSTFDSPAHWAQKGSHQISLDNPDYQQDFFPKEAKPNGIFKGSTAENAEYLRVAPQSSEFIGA

[11] = target: T1, 3-phosphoinositide-dependent protein kinase 1 (Homo sapiens, UniProt O15530); test: Inhibitory activity against PDK1
T1 sequence (O15530 whole entry): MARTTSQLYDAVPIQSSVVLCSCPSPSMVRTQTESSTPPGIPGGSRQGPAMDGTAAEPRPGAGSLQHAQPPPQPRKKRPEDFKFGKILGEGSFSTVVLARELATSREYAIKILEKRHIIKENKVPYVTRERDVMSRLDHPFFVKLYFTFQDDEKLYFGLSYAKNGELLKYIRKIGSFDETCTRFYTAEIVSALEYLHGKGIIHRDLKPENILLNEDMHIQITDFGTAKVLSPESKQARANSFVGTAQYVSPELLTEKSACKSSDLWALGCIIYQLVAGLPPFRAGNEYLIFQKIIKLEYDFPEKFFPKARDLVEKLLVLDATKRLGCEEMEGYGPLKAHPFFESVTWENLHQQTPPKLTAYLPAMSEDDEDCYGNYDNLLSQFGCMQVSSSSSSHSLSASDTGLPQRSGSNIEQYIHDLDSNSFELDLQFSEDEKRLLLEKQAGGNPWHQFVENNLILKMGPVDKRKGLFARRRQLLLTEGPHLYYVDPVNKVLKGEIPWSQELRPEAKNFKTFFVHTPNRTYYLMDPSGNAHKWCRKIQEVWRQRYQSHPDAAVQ

Mus musculus = test: Toxicity in nude mouse at 150 mg/kg, po; type: organism-based; set-up: dose 150 mg/kg, route oral; details: in vivo
[12] = target: RAC-alpha serine/threonine-protein kinase (Homo sapiens, UniProt P31749); test: Inhibition of AKT
RAC-alpha serine/threonine-protein kinase, sequence (P31749 whole entry): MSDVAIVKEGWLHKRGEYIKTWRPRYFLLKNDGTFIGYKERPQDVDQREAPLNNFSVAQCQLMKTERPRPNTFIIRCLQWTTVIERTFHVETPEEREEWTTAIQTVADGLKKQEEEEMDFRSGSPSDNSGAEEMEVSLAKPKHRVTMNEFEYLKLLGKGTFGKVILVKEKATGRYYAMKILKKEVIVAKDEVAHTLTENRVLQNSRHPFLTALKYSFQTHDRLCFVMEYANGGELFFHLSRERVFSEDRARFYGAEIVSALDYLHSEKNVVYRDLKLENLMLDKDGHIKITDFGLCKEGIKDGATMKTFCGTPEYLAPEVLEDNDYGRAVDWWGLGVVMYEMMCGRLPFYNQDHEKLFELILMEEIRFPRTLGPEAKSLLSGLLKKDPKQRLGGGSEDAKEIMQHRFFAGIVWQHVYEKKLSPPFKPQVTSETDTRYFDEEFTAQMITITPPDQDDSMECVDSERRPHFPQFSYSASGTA

[13] = target: Vascular endothelial growth factor receptor 2 (Homo sapiens, UniProt P35968); test: Inhibition of KDR
Vascular endothelial growth factor receptor 2, sequence (P35968 whole entry): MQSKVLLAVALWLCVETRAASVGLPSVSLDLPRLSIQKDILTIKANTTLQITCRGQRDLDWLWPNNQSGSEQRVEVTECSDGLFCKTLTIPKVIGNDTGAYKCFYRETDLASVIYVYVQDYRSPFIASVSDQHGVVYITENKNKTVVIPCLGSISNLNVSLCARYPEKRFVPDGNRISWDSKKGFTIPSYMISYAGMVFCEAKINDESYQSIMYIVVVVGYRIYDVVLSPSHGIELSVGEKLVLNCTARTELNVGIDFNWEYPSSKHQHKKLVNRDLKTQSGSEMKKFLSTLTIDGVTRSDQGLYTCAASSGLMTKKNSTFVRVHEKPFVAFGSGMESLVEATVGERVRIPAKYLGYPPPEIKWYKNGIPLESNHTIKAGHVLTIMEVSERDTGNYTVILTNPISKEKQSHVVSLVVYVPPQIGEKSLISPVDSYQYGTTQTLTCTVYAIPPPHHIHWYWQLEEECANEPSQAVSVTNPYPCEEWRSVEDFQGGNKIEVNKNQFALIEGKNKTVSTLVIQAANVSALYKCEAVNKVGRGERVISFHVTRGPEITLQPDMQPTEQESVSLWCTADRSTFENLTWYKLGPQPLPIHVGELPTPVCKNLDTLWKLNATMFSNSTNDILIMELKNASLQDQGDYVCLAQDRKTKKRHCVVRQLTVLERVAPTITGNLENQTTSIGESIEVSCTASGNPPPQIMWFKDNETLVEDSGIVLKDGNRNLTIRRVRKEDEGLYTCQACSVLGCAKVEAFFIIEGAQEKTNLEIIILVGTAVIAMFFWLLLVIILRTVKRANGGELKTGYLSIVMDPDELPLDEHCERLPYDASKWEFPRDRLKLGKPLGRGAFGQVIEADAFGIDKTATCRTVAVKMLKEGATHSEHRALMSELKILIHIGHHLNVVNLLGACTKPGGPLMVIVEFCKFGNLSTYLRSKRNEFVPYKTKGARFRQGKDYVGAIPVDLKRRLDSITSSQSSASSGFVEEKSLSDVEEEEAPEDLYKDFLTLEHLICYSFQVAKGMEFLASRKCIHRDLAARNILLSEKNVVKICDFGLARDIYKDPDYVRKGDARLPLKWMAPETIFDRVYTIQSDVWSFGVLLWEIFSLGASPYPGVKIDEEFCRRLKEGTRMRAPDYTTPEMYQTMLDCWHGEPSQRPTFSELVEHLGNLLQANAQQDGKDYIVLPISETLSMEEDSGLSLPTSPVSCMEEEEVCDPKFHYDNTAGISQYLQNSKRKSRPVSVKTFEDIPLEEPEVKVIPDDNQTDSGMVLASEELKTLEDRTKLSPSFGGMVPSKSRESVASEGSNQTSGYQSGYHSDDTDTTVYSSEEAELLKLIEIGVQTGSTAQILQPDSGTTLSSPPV

Proto-oncogene tyrosine-protein kinase Src, sequence (P12931 2-536 limits assumed): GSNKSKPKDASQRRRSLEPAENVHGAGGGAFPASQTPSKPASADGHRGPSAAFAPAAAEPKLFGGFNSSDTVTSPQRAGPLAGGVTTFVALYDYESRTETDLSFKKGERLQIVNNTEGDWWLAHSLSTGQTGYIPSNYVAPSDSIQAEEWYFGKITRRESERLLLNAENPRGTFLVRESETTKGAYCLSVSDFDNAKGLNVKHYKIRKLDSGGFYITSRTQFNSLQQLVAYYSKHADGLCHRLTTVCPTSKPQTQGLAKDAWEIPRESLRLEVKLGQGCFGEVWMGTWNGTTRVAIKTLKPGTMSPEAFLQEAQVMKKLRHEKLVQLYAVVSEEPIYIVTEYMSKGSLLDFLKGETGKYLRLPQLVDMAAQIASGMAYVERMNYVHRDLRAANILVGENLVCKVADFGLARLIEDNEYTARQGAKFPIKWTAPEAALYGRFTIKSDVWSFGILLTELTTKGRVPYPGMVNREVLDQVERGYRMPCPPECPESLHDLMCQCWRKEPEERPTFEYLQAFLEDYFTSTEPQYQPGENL

- solubility [1]: 0.063 mg/mL (≈ 114 µM)
- IC50 [2]: 0.00078 µM
- half-life [3]: 32 min
- remaining at 0.5 h [4]: 72%
- concentration at 8 h [5]: 1.03 µg/mL
- IC50 [6]: > 1 µM
- Papp [7]: 20 nm/s
- concentration at 24 h [8]: 0.103 µg/mL
- concentration at 4 h [9]: 1.14 µg/mL
- IC50 [10]: 0.23 µM
- IC50 [11]: > 1 µM
- IC50 [12]: > 1 µM
- IC50 [13]: > 1 µM
Compound: COc1cc(Nc2c(C#N)cnc3cc(-c4coc(CN5CCN(C)CC5)c4)c(OC)cc23)c(Cl)cc1Cl
- Activity (HT-29): 38%
- Activity (Mus musculus): Non-toxic
